Data published in patent US20220031680A1, “Donecopride As Neuroprotective Agent In the Treatment of Neurodegenerative Diseases” (priority 2018, published 2022).
Marks after values point to notes of the source that are not given here.

Columns and labels:
[1] = system: rat primary hippocampal neurons injured with Aβ 1-42; assay: Survival and neurite network of MAP-2 neurons in primary hippocampal neurons injured with Aβ1-42; assay type: cell-based; conditions: for MAP-2 neurite network (% of control) / MAP-2 neurons (% of control) / Neurite network/MAP-2 neurons (% of control): Aβ 1-42 (20 μM) 24 h; for MAP-2 neurons (% of control): 1 h preincubation; for Neurite network/MAP-2 neurons (% of control): neurite network normalized by number of neurons
Procedure: Rat hippocampal neurons were cultured as described by Callizot et al. (2013) J. Neurosci. Res. 91706-716. Pregnant female rats of 17 days gestation (Rats Wistar; Janvier Labs France) were killed using a deep anesthesia with CO2 chamber followed by a cervical dislocation. Then, fetuses were removed from the uterus and immediately placed in ice-cold L15 Leibovitz medium with a 2% penicillin (10,000 U/ml) and streptomycin (10 mg/ml) solution (PS) and 1% bovine serum albumin (BSA). Hippocampal neurons were treated for 20 min at 37° C. with a trypsin-EDTA solution at a final concentration of 0.05% trypsin and 0.02% EDTA. The dissociation was stopped by adding Dulbecco's modified Eagle's medium (DMEM) with 4.5 g/l of glucose, containing DNAse I grade II (final concentration 0.5 mg/ml) and 10% fetal calf serum (FCS). Cells were mechanically dissociated by three forced passages through the tip of a 10-ml pipette and then centrifuged at 515×g for 10 min at 4° C. The supernatant was discarded, and the pellet was resuspended in a defined culture medium consisting of Neurobasal medium with a 2% solution of B27 supplement, 2 mmol/l of L-glutamine, 2% of PS solution, and 10 ng/ml of brain-derived neurotrophic factor (BDNF). Viable cells were counted in a Neubauer cytometer, using the trypan blue exclusion test. Cells were seeded at a density of 20,000 per well in 96-well plates precoated with poly-L-lysine and cultured at 37° C. in an air (95%)-CO2 (5%) incubator. The medium was changed every 2 days.
(§1) The hippocampal neurons were exposed with Aβ solutions (see below) after 17 days of culture. The Aβ1-42 preparation was done following the procedure described by Callizot et al. (2013) J. Neurosci. Res. 91706-716. Briefly, Aβ1-42 peptide was dissolved in the defined culture medium mentioned above, at an initial concentration of 40 μM. This solution was gently agitated for 3 days at 37° C. in the dark and immediately used after being properly diluted in culture medium to the concentrations used (20 μM (plate 1) or 2.5 μM (plate 2) corresponding to 2 μM or 0.25 μM of oligomers (AβO) respectively).
(§2) Donecopride fumarate was solved in culture medium and preincubated 1 h before Aβ application. Aβ1-42 preparation was added to a final concentration of 20 or 2.5 μM (=2 μM or 0.25 μM of AβO, evaluated by automatic Western Blot) diluted in control medium in presence of Donecopride.
Donecopride fumarate (Donecopride) was tested on one culture in a 96 well plate (6 wells per conditions). The compound was preincubated one hour before Aβ application. The following conditions were assessed:
(§3) 24 hours after intoxication, the hippocampal neurons were fixed by a cold solution of ethanol (95%) and acetic acid (5%) for 5 min at −20° C. After permeabilization with 0.1% of saponin, cells were incubated for 2 h with:
a) chicken polyclonal antibody anti microtubule-associated-protein 2 (MAP-2), diluted at 1/1000 in PBS containing 1% fetal calf serum and 0.1% of saponin (this antibody allows the specific staining of neuronal cell bodies and neurites; and allow the study of neuronal cell death and neurite network).
(§4) For each condition, 30 pictures (representative of the whole well area) per well were taken using ImageXpress (Molecular Devices) at 20× magnification. All images were taken with the same acquisition parameters. Analyses were performed automatically by using Custom Module Editor (Molecular Devices).
(§5) The following endpoints were assessed: • Total number of neurons (neuron survival, number of MAP-2 positive neurons) • Neurite network (in μm of MAP-2 positive neurons) • area of tau in neurons (μm^2, overlapping with MAP-2 positive neurons).
All values are expressed as mean+/−SEM. Statistical analysis was performed by one-way ANOVA, followed by PLSD Fisher's test, p<0.05 were considered significant.
Rat hippocampal neurons were cultured as described by Callizot et al. (2013) J. Neurosci. Res. 91:706-716. […]

[2] = system: Tau (AT100); assay: Phosphorylation of Tau (AT100) in MAP-2 hippocampal neurons injured with Aβ1-42; assay type: cell-based, rat; conditions: for Area of Tau (AT100)/neurons (% of control): Aβ 1-42 (20 μM) 24 h; for concentration of maximal effect on Tau hyperphosphorylation: Aβ1-42 injured hippocampal neurons
Procedure: as §1, §2, §3
b) mouse monoclonal antibody anti-phospho Tau (AT100) at dilution of 1/400 in PBS containing 1% fetal calf serum and 0.1% of saponin.
as §4, §5
Injury: The hippocampal neurons were exposed with Aβ solutions (see below) after 17 days of culture. The Aβ1-42 preparation was done following the procedure described by Callizot et al. (2013) J. Neurosci. Res. 91:706-716. The batch number of the Aβ1-42 used in this study contains 10% of oligomers (quantification by WB as performed in Combes et al. (2015) J. Neurosci. Res. 93:633-643). Briefly, Aβ1-42 peptide was dissolved in the defined culture medium mentioned above, at an initial concentration of 40 μmol/1. This solution was gently agitated for 3 days at 37° C. in the dark and immediately used after being properly diluted in culture medium to the concentrations used (20 μmol/l or 2.5 μmol/l corresponding to 2 μmol/l or 0.25 μmol/l of oligomers (AβO) respectively). Aβ1-42 preparation was added to a final concentration of 20 or 2.5 μmol/l (respectively 2 μmol/l or 0.25 μmol/l of AβO, determined by automatic WB) diluted in control medium in presence of the compounds.
Immunostaining: MAP-2/AT100—After fixation and permeabilization, cells were incubated for 2 hours with: • a chicken polyclonal antibody anti microtubule-associated-protein 2 (MAP-2) at dilution of 1/1000 in PBS containing 1% fetal calf serum and 0.1% saponin (this antibody stains specifically cell bodies and neurites, allowing study of neuronal cell death and neurite network); and • a mouse monoclonal antibody anti-phospho Tau (AT100) at dilution of 1/100 in PBS containing 1% fetal calf serum and 0.1% saponin.
For each condition, 30 pictures (representative of the whole well area) per well were taken using ImageXpress® (Molecular Devices) with 20× magnification. All images were generated using the same acquisition parameters. From images, analyses were directly and automatically performed by Custom Module Editor® (Molecular Devices). The following read-outs were investigated: • Total number of neurons (neuron survival, number of MAP-2 positive neurons) • Neurite network (in μm of MAP-2 positive neurons) • Area of AT100 (μm^2, overlapping with MAP-2 positive neurons).

[3] = Aβ1-42 injured hippocampal neurons, Example 4

SMILES: COc1cc(N)c(F)cc1C(=O)CCC1CCN(CC2CCCCCC2)CC1 [MR36014]
- neuroprotective effect (survival, neurite network, Tau hyperphosphorylation) ([1]; pM doses, Aβ1-42 injured hippocampal neurons, Example 5 (FIG. 11)): neuroprotective effect was also observed at pM doses

SMILES: COc1cc2c(cc1OC)C(=O)C(CC1CCN(Cc3ccccc3)CC1)C2 (stereo not shown) [Donepezil, reference compound]
- MAP-2 neurite network (% of control) ([1]; 1 μM): 92* % of control
- MAP-2 neurons (% of control) ([1]; 1 μM): 82* % of control
- Neurite network/MAP-2 neurons (% of control) ([1]; 1 μM): 113* % of control
- Area of Tau (AT100)/neurons (% of control) ([2]; 1 μM): 151* % of control

SMILES: COc1cc(N)c(F)cc1C(=O)CCC1CCN(CC2CCCC2)CC1 [MR33583]
- active concentrations (neuroprotective effect) ([1]; Aβ1-42 injured hippocampal neurons (FIGS. 7 and 8)): 50 to 500 nM
- effect on neurite network [1, 3]: strong effect on neurite network was observed at almost every tested dose
- neuroprotective effect (survival, neurite and synaptic network) [1, 3]: neuroprotective effect following a bell shaped curved
- concentration of maximal effect on Tau hyperphosphorylation [2]: 50 to 100 nM

SMILES: COc1cc(N)c(F)cc1C(=O)CCC1CCN(CC2CCCCC2)CC1 [Flucopride]
- neuroprotective effect (survival, neurite and synaptic network) [1, 3]: strong neuroprotective effect
- concentration of maximum effect on survival and neurite network ([1]; Aβ1-42 injured hippocampal neurons, bell shaped curve (FIGS. 1A-C)): 100 nM
- concentration of maximal effect on Tau hyperphosphorylation [2]: 50 nM

SMILES: COc1cc(N)c(Cl)cc1C(=O)CCC1CCN(CC2CCCCC2)CC1 [Donecopride]
- MAP-2 neurite network (% of control) ([1]; 1 nM): 64 % of control
- MAP-2 neurons (% of control) ([1]; 1 nM): 70 % of control
- Neurite network/MAP-2 neurons (% of control) ([1]; 1 nM): 90 % of control
- MAP-2 neurite network (% of control) ([1]; 5 nM): 69 % of control
- MAP-2 neurons (% of control) ([1]; 5 nM): 69 % of control
- Neurite network/MAP-2 neurons (% of control) ([1]; 5 nM): 99 % of control
- MAP-2 neurite network (% of control) ([1]; 10 nM): 68 % of control
- MAP-2 neurons (% of control) ([1]; 10 nM): 73 % of control
- Neurite network/MAP-2 neurons (% of control) ([1]; 10 nM): 96 % of control
- MAP-2 neurite network (% of control) ([1]; 50 nM): 71* % of control
- MAP-2 neurons (% of control) ([1]; 50 nM): 74 % of control
- Neurite network/MAP-2 neurons (% of control) ([1]; 50 nM): 91 % of control
- MAP-2 neurite network (% of control) ([1]; 100 nM): 73* % of control
- MAP-2 neurons (% of control) ([1]; 100 nM): 78* % of control
- Neurite network/MAP-2 neurons (% of control) ([1]; 100 nM): 93 % of control
- MAP-2 neurite network (% of control) ([1]; 500 nM): 79* % of control
- MAP-2 neurons (% of control) ([1]; 500 nM): 79* % of control
- Neurite network/MAP-2 neurons (% of control) ([1]; 500 nM): 100 % of control
- MAP-2 neurite network (% of control) ([1]; 1 μM): 76* % of control
- MAP-2 neurons (% of control) ([1]; 1 μM): 62* % of control
- Neurite network/MAP-2 neurons (% of control) ([1]; 1 μM): 124* % of control
- Area of Tau (AT100)/neurons (% of control) ([2]; 1 nM): 204 % of control
- Area of Tau (AT100)/neurons (% of control) ([2]; 5 nM): 201 % of control
- Area of Tau (AT100)/neurons (% of control) ([2]; 10 nM): 175 % of control
- Area of Tau (AT100)/neurons (% of control) ([2]; 50 nM): 161* % of control
- Area of Tau (AT100)/neurons (% of control) ([2]; 100 nM): 154* % of control
- Area of Tau (AT100)/neurons (% of control) ([2]; 500 nM): 152* % of control
- Area of Tau (AT100)/neurons (% of control) ([2]; 1 μM): 198 % of control
